Usually pIC50 stands for −log10 of the IC50, conventionally taken in molar units. A lower pIC50 goes with a high IC50.

pIC50: −log10 of the molar value.

MAPK14 (human), sequence (Q16539 whole entry, looked up): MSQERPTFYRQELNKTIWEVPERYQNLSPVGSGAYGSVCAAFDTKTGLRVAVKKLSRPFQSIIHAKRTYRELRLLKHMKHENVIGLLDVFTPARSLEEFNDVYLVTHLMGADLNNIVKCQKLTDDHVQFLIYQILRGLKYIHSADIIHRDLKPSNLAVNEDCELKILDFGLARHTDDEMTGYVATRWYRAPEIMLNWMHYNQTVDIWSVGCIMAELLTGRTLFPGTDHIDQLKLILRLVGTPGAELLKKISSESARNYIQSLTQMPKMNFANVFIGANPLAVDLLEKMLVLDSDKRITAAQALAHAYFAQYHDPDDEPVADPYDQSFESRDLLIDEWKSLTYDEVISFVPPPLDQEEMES

This assay addresses MAPK14 (human) (UniProt Q16539). As to the kind of experiment: Cell-Based Assay. The following applies: hct-116.
`Nc1ncc(-c2cnn(C3CCNCC3)c2)c2cc(-c3ccc4[nH][nH]c(=O)c4c3)oc12`: the pIC50 is below 5.00.

In turn, `CC(=O)N1CCC(n2cc(-c3cnc(N)c4oc(-c5cccc([N+](=O)[O-])c5)cc34)cn2)CC1` showed a pIC50 of 6.00 to 7.00.

The molecule `Nc1ncc(-c2cnn([C@H]3CC[C@H](O)CC3)c2)c2cc(-c3ccc(F)c4cnsc34)oc12` had a pIC50 of 6.00 to 7.00.

As for `Nc1ncc(-c2cnn([C@H]3CC[C@H](O)CC3)c2)c2cc(-c3c(F)ccc4cnsc34)oc12`, the pIC50 is 6.00 to 7.00. Then `Nc1ncc(-c2cnn([C@H]3CC[C@H](O)CC3)c2)c2cc(-c3cncc4cnsc34)oc12`, with 6.00 to 7.00; and `CC(=O)N1CCC(n2cc(-c3cnc(N)c4oc(-c5cccc6cnccc56)cc34)cn2)CC1`, with 6.00 to 7.00; and `CC(=O)N1CCC(n2cc(-c3cnc(N)c4oc(-c5ccc6c(c5)CCO6)cc34)cn2)CC1`, with at least 7.00. Consider `CC(=O)N1CCC(n2cc(-c3cnc(N)c4oc(-c5cccc6[nH]ncc56)cc34)cn2)CC1`, for which the pIC50 is 6.00 to 7.00. For the molecule `CC(=O)N1CCC(n2cc(-c3cnc(N)c4oc(-c5cccc6ccnn56)cc34)cn2)CC1`, the pIC50 is 6.00 to 7.00. On to `CC(C)n1cc(-c2cnc(N)c3oc(-c4cccc5cnccc45)cc23)cn1`, for which the pIC50 is 6.00 to 7.00. `Nc1ncc(-c2cnn([C@H]3CC[C@H](O)CC3)c2)c2cc(-c3cccc4nnsc34)oc12` gave a pIC50 of at least 7.00.

`CC(=O)N1CCC(n2cc(-c3cnc(N)c4oc(-c5cccc6nnsc56)cc34)cn2)CC1` gave a pIC50 of at least 7.00.

For the molecule `Nc1ncc(-c2cnn(C3CNC3)c2)c2cc(-c3csc4cnccc34)oc12`, the pIC50 is 6.00 to 7.00. For the molecule `CC(=O)N1CCC(n2cc(-c3cnc(N)c4oc(-c5ccc6c(c5)C(=O)NC6)cc34)cn2)CC1`, the pIC50 was below 5.00. `Cc1sc2cnccc2c1-c1cc2c(-c3cnn([C@H]4CC[C@H](O)CC4)c3)cnc(N)c2o1` showed a pIC50 of 6.00 to 7.00. Turning to `CC(=O)N1CCC(n2cc(-c3cnc(N)c4oc(-c5cccc6[nH]ccc56)cc34)cn2)CC1`, the pIC50 is 6.00 to 7.00. In the case of `COCCN1CCC(n2cc(-c3cnc(N)c4oc(-c5cccc6cnccc56)cc34)cn2)CC1`, the pIC50 is 6.00 to 7.00. To `CC(=O)N1CCC(n2cc(-c3cnc(N)c4oc(-c5cccc(O)c5)cc34)cn2)CC1` belongs 6.00 to 7.00. Take `CCSc1ccccc1-c1cc2c(-c3cnn(C4CCN(C(C)=O)CC4)c3)cnc(N)c2o1`: the pIC50 was 6.00 to 7.00. In turn, `CC(=O)N1CCC(n2cc(-c3cnc(N)c4oc(-c5ccc6[nH]ccc6c5)cc34)cn2)CC1` had a pIC50 of 6.00 to 7.00. As for `Nc1ncc(-c2cnn(C3CCN(C(=O)C4CCC4)CC3)c2)c2cc(-c3cccc4cnccc34)oc12`, the negative-log IC50 (pIC50) was 6.00 to 7.00. The molecule `CC(=O)N1CCC(n2cc(-c3cnc(N)c4oc(-c5cccc([N+](=O)[O-])c5C)cc34)cn2)CC1` gave a pIC50 of 6.00 to 7.00. As for `Nc1ncc(-c2cnn([C@H]3CC[C@H](O)CC3)c2)c2cc(-c3cccc4cnccc34)oc12`, the pIC50 was 6.00 to 7.00.

For the molecule `CC(=O)N1CCC(n2cc(-c3cnc(N)c4oc(-c5ccc(S(C)(=O)=O)cc5)cc34)cn2)CC1`, the pIC50 is below 5.00. As for `CC(=O)N1CCC(n2cc(-c3cnc(N)c4oc(-c5ccccc5CC#N)cc34)cn2)CC1`, the pIC50 is 6.00 to 7.00. Molecule `CC(C)N1CCC(n2cc(-c3cnc(N)c4oc(-c5cccc6cnccc56)cc34)cn2)CC1` had a pIC50 of 6.00 to 7.00.

In turn, `CNc1ncc(-c2cnn(C3CCN(C(C)=O)CC3)c2)c2cc(-c3c[nH]c4cnccc34)oc12` gave a pIC50 of 6.00 to 7.00. As to `Nc1ncc(-c2cnn([C@H]3CC[C@H](O)CC3)c2)c2cc(-c3csc4cnccc34)oc12`, the pIC50 was at least 7.00.

Turning to `Nc1ncc(-c2cnn(C3CCNCC3)c2)c2cc(-c3cccc4cnccc34)oc12`, the pIC50 is 6.00 to 7.00. To `CC(C)C(=O)N1CCC(n2cc(-c3cnc(N)c4oc(-c5cccc6cnccc56)cc34)cn2)CC1` belongs at least 7.00; to `CC(=O)N1CCC(n2cc(-c3cnc(N)c4oc(-c5csc6cnccc56)cc34)cn2)CC1`, 6.00 to 7.00. Then `CC(=O)N1CCC(n2cc(-c3cnc(N)c4oc(-c5cccn6ccnc56)cc34)cn2)CC1`, with 6.00 to 7.00; and `Cn1cc(-c2cnc(N)c3oc(-c4c[nH]c5cnccc45)cc23)cn1`, with 6.00 to 7.00. To `Nc1ncc(-c2cnn([C@H]3CC[C@H](O)CC3)c2)c2cc(-c3csc4cnc(F)cc34)oc12` belongs at least 7.00; to `CNc1ncc(-c2cnn(C3CCN(C(C)=O)CC3)c2)c2cc(-c3csc4cnccc34)oc12`, at least 7.00. The molecule `Nc1ncc(-c2cn[nH]c2)c2cc(-c3cccc4cnccc34)oc12` showed a pIC50 of 6.00 to 7.00. `CC(=O)N1CCC(n2cc(-c3cnc(N)c4oc(-c5cccc(C#N)c5)cc34)cn2)CC1` showed a negative-log IC50 (pIC50) of 6.00 to 7.00. Turning to `CC(C)n1cc(-c2cnc(N)c3oc(-c4c[nH]c5cnccc45)cc23)cn1`, the pIC50 is at least 7.00. As for `CC(=O)N1CCC(n2cc(-c3cnc(N)c4oc(-c5csc6cncc(F)c56)cc34)cn2)CC1`, the pIC50 is 6.00 to 7.00. `CC(=O)N1CCC(n2cc(-c3cnc(N)c4oc(-c5cnn(Cc6cccnc6)c5)cc34)cn2)CC1` had a pIC50 below 5.00. For the molecule `CC(=O)N1CCC(n2cc(-c3cnc(N)c4oc(-c5ccc6[nH]nnc6c5)cc34)cn2)CC1`, the pIC50 was below 5.00. Consider `COCC(=O)N1CCC(n2cc(-c3cnc(N)c4oc(-c5cccc6cnccc56)cc34)cn2)CC1`, for which the pIC50 was 6.00 to 7.00. As to `CS(=O)(=O)N1CCC(n2cc(-c3cnc(N)c4oc(-c5cccc6cnccc56)cc34)cn2)CC1`, the pIC50 is 6.00 to 7.00. To `CC(=O)N1CCC(n2cc(-c3cnc(N)c4oc(-c5cccc6cnsc56)cc34)cn2)CC1` belongs at least 7.00; to `CS(=O)(=O)CCN1CCC(n2cc(-c3cnc(N)c4oc(-c5cccc6cnccc56)cc34)cn2)CC1`, 6.00 to 7.00. For `Nc1ncc(-c2cnn([C@H]3CC[C@H](O)CC3)c2)c2cc(-c3cccc4cnsc34)oc12`, the pIC50 is 6.00 to 7.00. Then `CC(=O)N1CCC(n2cc(-c3cnc(N)c4oc(-c5ccc6sccc6c5)cc34)cn2)CC1`, with 6.00 to 7.00; and `Cn1cc(-c2cnc(N)c3oc(-c4csc5cnccc45)cc23)cn1`, with 6.00 to 7.00; and `CC(=O)N1CCC(n2cc(-c3cnc(N)c4oc(-c5cncc6cnsc56)cc34)cn2)CC1`, with 6.00 to 7.00. With `Nc1ncc(-c2cnn(C3CCN(C(=O)C4CC4)CC3)c2)c2cc(-c3cccc4cnccc34)oc12`, the pIC50 is 6.00 to 7.00.

These data come from the Kinase Knowledgebase extract (Sharma et al. 2016).
